Measured values taken from US20110293745A1, “AURORA KINASE INHIBITORS” (SUNESIS PHARMACEUTICALS, INC., priority 2008, published 2011).

Columns and labels:
[1] = Distribution of compound in tumor and plasma, HCT 116 xenograft mice; assay type: in vivo, mouse; settings: for half-life: female, nu/nu athymic, mouse, ip, 170 mg/kg
Protocol: The studies in Examples 20, 21, and 22 used female mice nu/nu athymic mice. Compound 1 was formulated fresh each week for dosing. […] HCT 116 colorectal carcinoma cells were implanted in the animals' right hind flanks subcutaneously with 200 μL of a 2.5×10^7 cells/mL suspension [1:1 Dulbecco's PBS (DPBS) with cells:Matrigel™. […] Dosing schedules are provided separately for each of the studies in Examples 28, 29, and 30. […] Terminal blood and tumor samples were harvested between 15 min and 96 hr. Female nu/nu athymic mice received HCT 116 colorectal cancer cell suspension (1:1 DPBS with cells:Matrigel) as a subcutaneous injection in the right hind flank. […] For HPLC-MS/MS, the detector consisted of an API4000 (Sciex/ABI, Foster City, Calif.) triple quadrapole mass spectrometer using turbo electrospray ionization.

[2] = test system: pHH3 in A2780; test: cells; settings: Homo sapiens, A2780, 1 h, read-out: pHH3 IC50
Protocol: (§1) For analysis of pHH3 on adherent cells (HCT116, A375, and H1299), tumor cells were grown in 96-well tissue culture plates overnight at 37° C. […] Cells were fixed, permeabilized and exposed to anti-pHH3 antibody and analyzed for pHH3 staining. Data were fit to an IC50 equation. For analysis of pHH3 on nonadherent cells or cells with irregular morphology (A2780, Calu-6, and HT-29), tumor cells were seeded in 6-well tissue culture plates overnight at 37° C. […] Cells were trypsinized, collected, lysed, and analyzed by immunoblotting.

[3] = test system: pHH3 in H1299; test: cells; settings: Homo sapiens, NCI-H1299, 1 h, read-out: pHH3 IC50
Protocol: as §1

[4] = test system: pHH3 in A375; test: cells; settings: Homo sapiens, A-375, 1 h, read-out: pHH3 IC50
Protocol: as §1

[5] = test system: pHH3 in Calu-6; test: cells; settings: Homo sapiens, Calu-6, 1 h, read-out: pHH3 IC50
Protocol: as §1

[6] = test system: variety of mice xenograft models representing a range of tissue types; test: In vivo efficacy across xenograft models (summary); settings: dose-dependent, well tolerated doses
[7] = test system: A375; test: cells; settings: Homo sapiens, A-375, 16 h, read-out: Cell Cycle EC50
Protocol: (§2) Cells were fixed, stained, and analyzed. The percentage of cells with ≧4N DNA content as a function of concentration was fit to estimate EC50. For cell cycle analysis on nonadherent cells or cells with irregular morphology (A2780, HL-60, CCRF-CEM, and HT-29), tumor cells were seeded in 12-well tissue culture plates overnight at 37° C. […] Cells were trypsinized, collected, stained with propidium iodide, and analyzed by flow cytometry.

[8] = test system: CCRF-CEM; test: cells; settings: Homo sapiens, 16 h, read-out: Cell Cycle EC50
Protocol: as §2

[9] = test system: HeLa; test: cells; settings: Homo sapiens, 16 h, read-out: Cell Cycle EC50
Protocol: as §2

[10] = test system: Calu-6; test: cells; settings: Homo sapiens, Calu-6, 16 h, read-out: Cell Cycle EC50
Protocol: as §2

[11] = test system: HL-60; test: cells; settings: Homo sapiens, HL-60, 16 h, read-out: Cell Cycle EC50
Protocol: as §2

[12] = test system: HCT116; test: cells; settings: Homo sapiens, HCT-116, 16 h, read-out: Cell Cycle EC50
Protocol: as §2

[13] = test system: PC3; test: cells; settings: Homo sapiens, PC-3, 16 h, read-out: Cell Cycle EC50
Protocol: as §2

[14] = test system: MDA-MB-231; test: cells; settings: Homo sapiens, MDA-MB-231, 16 h, read-out: Cell Cycle EC50
Protocol: as §2

[15] = test system: H1299; test: cells; settings: Homo sapiens, NCI-H1299, 16 h, read-out: Cell Cycle EC50
Protocol: as §2

[16] = test system: A2780; test: cells; settings: Homo sapiens, A2780, 16 h, read-out: Cell Cycle EC50
Protocol: as §2

[17] = test system: pHH3 in HCT 116 tumor xenograft; test: Phospho-histone H3 in vivo (Western blot of tumor); design: species or system mouse; settings: single 50 mg/kg and 100 mg/kg IP; 3 hr, 6 hr, 10 hr post administration
Text: For each of the studies of compound distribution, pHH3 levels, and tumor section microscopy, after the tumors reached an average volume of 500 mm^3, the animals were weighed and sorted into randomized groups before initial dosing.

[18] = test system: pHH3 in HCT 116 xenograft tumor; test: Plasma concentration versus pHH3 in tumor (Western blot, ELISA, HPLC-MS/MS); assay type: in vivo, mouse
Protocol: When tumors reached an average volume of 400 mm^3, mice were sorted into randomized groups of 3 per time point. […] Tumor samples were frozen on liquid nitrogen, and ground into a fine powder. Lysis buffer containing phosphatase inhibitors was added to the tumor powder before homogenization and a snap freeze cycle. The cellular debris was removed by centrifugation, and the protein concentration was measured using the BioRad DC Protein Assay. […] Protein was transferred to PVDF membrane at a constant 30 V for 1 hr using the Invitrogen XCell II Blot Module transfer system and, upon completion, the membranes were incubated with 5% milk in TBST (Tris-buffered saline with Tween) at room temperature for 1 hr. […] Membranes were washed with TBST, and antibodies were detected with ECL Plus chemiluminescent detection system (Amersham), followed by exposure to Kodak BioMax film.
Films were visually assessed for total histone H3 (HH3) and histone H3 phosphorylation (pHH3). Total HH3 levels served as loading controls.
Phospho-histone H3 levels were determined using a commercial ELISA kit from (# KHO0671, Biosource/Invitrogen). The conditions were as described by the manufacturer with 100 μg total proteins from tumor lysates prepared as described in this Example.
Preparation of Plasma Samples. […]

[19] = Pharmacokinetics, single bolus intravenous injection; assay type: in vivo, beagle dogs; settings: beagle, dog, plasma, 5 mg/kg
Text: Pharmacokinetic parameters were estimated using noncompartmental analysis within WinNonlin v. 4.1. Quantification of Compound 2 was done by HPLC-MS/MS after extraction from plasma with acetonitrile. […] For rising dose experiments measuring exposure for each species, sets containing several animals were singly dosed at a given dose. Results from single-dose experiments are shown in FIG. 10A, Table 43, and in FIG. 10B and Table 44, respectively. […] C0 is initial concentration extrapolated to time zero. AUCINF is area under the plasma-concentration time curve from time zero extrapolated to the infinite time. CL is clearance; Vss is steady state volume of distribution. T1/2 is half-life.

[20] = Clinical serum concentration versus target threshold; assay type: in vivo, human; settings: patients; for Duration of target serum concentration: target serum concentration 1 μM

## CS(=O)(=O)O.O=C(Nc1cccc(Cl)c1)Nc1ncc(CCNc2ncnc3ccsc23)s1 [Compound 1, 1-(3-chlorophenyl)-3-{5-[2-(thieno[3,2-d]pyrimidin-4-ylamino)ethyl]thiazo}-urea]
[1]; post-dose
  time measurable drug levels are sustained in the HCT 116 tumor: more than 96 hours
[2]
  IC50: 150 nM
[3]
  IC50: 58 nM
[4]
  IC50: 15 nM
[5]
  IC50: 60 nM
[6]
  tumor growth inhibition: 58-99%
[7]
  EC50: 93 nM
[8]
  EC50: 4.2 nM
[9]
  EC50: 290 nM
[10]
  EC50: 13 nM
[11]
  EC50: 7 nM
[12]
  EC50: 34 nM
[13]
  EC50: 11 nM
[14]
  EC50: 30 nM
[15]
  EC50: 80 nM
[16]
  EC50: 6.1 nM
[17]
  level of pHH3 in tumor versus vehicle-treated mice: decreased
[18]; single dose of 170 mg/kg IP
  time maximal inhibition of phospho-histone H3 in tumor was maintained: up to 24 hours

## O=C(Nc1cccc(Cl)c1)Nc1ncc(CCNc2ncnc3ccsc23)s1 [Compound 2, 1-(3-chlorophenyl)-3-{5-[2-(thieno[3,2-d]pyrimidin-4-ylamino)ethyl]thiazol-2-yl}-urea]
[19]
  AUC(0-inf): 12300 ng·h/mL
  C0: 2800 ng/mL
  clearance: 6.8 mL/min/kg
  half-life: 1.1 h
[19]; read-out: Vss
  Vd: 1 L/kg
[1]; plasma, read-out: half-life in plasma (converted)
  half-life: 4.7 h
[1]; tumor, read-out: half-life in tumor (converted)
  half-life: 7.5 h
[18]; 1 hr postdose, HCT 116 xenograft mice, FIG. 43B
  plasma concentration that produced maximal inhibition of phosphorylation of Histone H3 in tumor: 5 µM
[20]; 240 mg/m^2 dose level
  serum levels versus preclinical target inhibitory levels: exceeded the preclinical target inhibitory levels
[20]; all dose levels
  minimum duration target serum concentration was achieved: ≥ 4 h
[20]; 3-hour infusion of Compound 1, 30 mg/m^2
  Duration of target serum concentration: 4 h
[20]; 3-hour infusion of Compound 1, 60 mg/m^2
  Duration of target serum concentration: 8 h
[20]; 3-hour infusion of Compound 1, 120 mg/m^2
  Duration of target serum concentration: 10 h
[20]; 3-hour infusion of Compound 1, 240 mg/m^2
  Duration of target serum concentration: 20 h
[20]; 3-hour infusion of Compound 1, 480 mg/m^2
  Duration of target serum concentration: 20 h
